Key:
[1] = test system: RAW264.7; assay: Inhibition of LPS-induced TNFalpha production in mouse RAW264.7 cells preincubated for 2 hrs followed by LPS treatment for 24 hrs by RT-qPCR analysis; type: functional, cell-based
[2] = Metabolic stability in dog liver microsomes assessed as intrinsic clearance at […] measured upto 60 mins in presence of NADPH by HPLC-MS analysis; type: ADME, Canis lupus familiaris, Microsome; parameters: dose or concentration left out as unconfirmed; settings: 1 h
[3] = Metabolic stability in human liver microsomes assessed as intrinsic clearance at […] measured upto 60 mins in presence of NADPH by HPLC-MS analysis; type: ADME, Microsome; parameters: dose or concentration left out as unconfirmed; settings: 1 h
[4] = Apparent volume of distribution in 12 hr starved C57 mouse at 5 mg/kg, iv measured for 0.083 to 24 hrs post-dose by LC-MS-MS analysis; type: ADME, organism-based; settings: in vivo, time 0.083-24 hrs, read-out: Vz
[5] = AUC (0 to t) in 12 hr starved C57 mouse at 30 mg/kg, po measured for 0.083 to 24 hrs post-dose by LC-MS-MS analysis; type: ADME, organism-based; parameters: time upper 24 hrs, dose 30 mg/kg, time lower 0.083 hrs, route po; settings: in vivo
[6] = Half life in 12 hr starved C57 mouse at 30 mg/kg, po measured for 0.083 to 24 hrs post-dose by LC-MS-MS analysis; type: ADME, organism-based; settings: in vivo, time 0.083-24 hrs
[7] = test system: Mus musculus; assay: Anti-ulcerative colitis activity in DSS-induced C57BL/6 mouse ulcerative colitis model assessed as colon length recovery ratio at 3 mg/kg, IG via gavage measured after 7 days relative to control; type: functional; settings: time 7 day
[8] = test system: Mus musculus; assay: Anti-ulcerative colitis activity in DSS-induced C57BL/6 mouse ulcerative colitis model assessed as colon length recovery ratio at 10 mg/kg, IG via gavage measured after 7 days relative to control; type: functional; settings: time 7 day
[9] = test system: Mus musculus; assay: Antiinflammatory activity against DSS-induced C57BL/6 mouse model of acute ulcerative colitis assessed as inhibition ratio of TNF-alpha protein expression at 1 mg/kg, IG via gavage measured after 7 days by ELISA relative to control; type: functional; parameters: scale not given: the % may be the effect or the level left; settings: time 7 day
[10] = test system: Mus musculus; assay: Antiinflammatory activity against DSS-induced C57BL/6 mouse model of acute ulcerative colitis assessed as inhibition ratio of IL-6 protein expression at 10 mg/kg, IG via gavage measured after 7 days by ELISA relative to control; type: functional; parameters: scale not given: the % may be the effect or the level left; settings: time 7 day
[11] = test system: Mus musculus; assay: Antiinflammatory activity against DSS-induced C57BL/6 mouse model of acute ulcerative colitis assessed as inhibition ratio of IL-23 mRNA expression in colon tissue at 1 mg/kg, IG via gavage measured after 7 days by RT-qPCR analysis relative to control; type: functional; parameters: scale not given: the % may be the effect or the level left; settings: time 7 day
[12] = test system: Mus musculus; assay: Antiinflammatory activity against DSS-induced C57BL/6 mouse model of acute ulcerative colitis assessed as inhibition ratio of IL-23 mRNA expression in colon tissue at 3 mg/kg, IG via gavage measured after 7 days by RT-qPCR analysis relative to control; type: functional; parameters: scale not given: the % may be the effect or the level left; settings: time 7 day
[13] = test system: Mus musculus; assay: Anti-ulcerative colitis activity in IL-10-/- C57BL/6 mouse model of ulcerative colitis assessed as body weight recovery ratio at 1 mg/kg, IG via gavage for 8 weeks and measured everyday relative to control; type: functional
[14] = test system: Mus musculus; assay: Anti-ulcerative colitis activity in IL-10-/- C57BL/6 mouse model of ulcerative colitis assessed as body weight recovery ratio at 10 mg/kg, IG via gavage for 8 weeks and measured everyday relative to control; type: functional
[15] = test system: Mus musculus; assay: Anti-ulcerative colitis activity in IL-10-/- C57BL/6 mouse model of ulcerative colitis assessed as colon length recovery ratio at 10 mg/kg, IG via gavage for 8 weeks relative to control; type: functional
[16] = test system: Mus musculus; assay: Antiinflammatory activity against IL-10-/- C57BL/6 mouse model of ulcerative colitis assessed as inhibition ratio of TNF-alpha protein expression at 10 mg/kg, IG via gavage and measured after 8 weeks by ELISA relative to control; type: functional; parameters: scale not given: the % may be the effect or the level left
[17] = test system: Mus musculus; assay: Antiinflammatory activity against IL-10-/- C57BL/6 mouse model of ulcerative colitis assessed as inhibition ratio of IL-23 protein expression at 3 mg/kg, IG via gavage and measured after 8 weeks by ELISA relative to control; type: functional; parameters: scale not given: the % may be the effect or the level left
[18] = test system: Mus musculus; assay: Antiinflammatory activity against IL-10-/- C57BL/6 mouse model of ulcerative colitis assessed as inhibition ratio of IL-23 protein expression at 10 mg/kg, IG via gavage and measured after 8 weeks by ELISA relative to control; type: functional; parameters: scale not given: the % may be the effect or the level left
[19] = test system: Mus musculus; assay: Antiinflammatory activity against IL-10-/- C57BL/6 mouse model of ulcerative colitis assessed as inhibition ratio of IL-1beta mRNA expression in colon tissue at 1 mg/kg, IG via gavage and measured after 8 weeks by RT-qPCR analysis relative to control; type: functional; parameters: scale not given: the % may be the effect or the level left
[20] = test system: Mus musculus; assay: Antiinflammatory activity against IL-10-/- C57BL/6 mouse model of ulcerative colitis assessed as inhibition ratio of IL-1beta mRNA expression in colon tissue at 3 mg/kg, IG via gavage and measured after 8 weeks by RT-qPCR analysis relative to control; type: functional; parameters: scale not given: the % may be the effect or the level left
[21] = test system: Mus musculus; assay: Antiinflammatory activity against IL-10-/- C57BL/6 mouse model of ulcerative colitis assessed as inhibition ratio of IL-23 mRNA expression in colon tissue at 1 mg/kg, IG via gavage and measured after 8 weeks by RT-qPCR analysis relative to control; type: functional; parameters: scale not given: the % may be the effect or the level left
[22] = test system: Mus musculus; assay: Antiinflammatory activity against IL-10-/- C57BL/6 mouse model of ulcerative colitis assessed as inhibition ratio of IL-23 mRNA expression in colon tissue at 10 mg/kg, IG via gavage and measured after 8 weeks by RT-qPCR analysis relative to control; type: functional; parameters: scale not given: the % may be the effect or the level left
[23] = test system: RAW264.7; assay: Inhibition of MKK3-p38-elF4E signaling pathway in mouse RAW264.7 cells assessed as reduction in LPS-induced elF4E phosphorylation treated for 1.5 hrs followed by LPS treatment for 1 hr by Western blot analysis; type: cell-based; settings: dose 3.125-12.5 µmol/L, time 2.5 hrs, DDE = dose-dependent effect
[24] = target: T1, Dual specificity mitogen-activated protein kinase kinase 3 (Homo sapiens, UniProt P46734); assay: Binding affinity to CM5 chip immobilized human MKK3 (20 to 347 residues) expressed in Escherichia coli BL21 (DE3) assessed as dissociation constants, KD by surface plasmon resonance analysis
T1 sequence (P46734 whole entry): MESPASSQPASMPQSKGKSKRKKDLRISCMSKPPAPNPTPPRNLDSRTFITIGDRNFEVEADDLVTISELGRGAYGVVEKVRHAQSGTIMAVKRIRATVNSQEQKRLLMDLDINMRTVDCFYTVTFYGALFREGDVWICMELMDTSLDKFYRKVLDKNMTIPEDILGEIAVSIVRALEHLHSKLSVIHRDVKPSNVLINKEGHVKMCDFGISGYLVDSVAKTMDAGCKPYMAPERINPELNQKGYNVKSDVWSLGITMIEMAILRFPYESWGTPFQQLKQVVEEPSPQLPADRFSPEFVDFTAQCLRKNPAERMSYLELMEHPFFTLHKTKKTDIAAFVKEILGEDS

[25] = Toxicity in C57 mouse assessed as kidney damage at 50 to 500 mg/kg, po administered daily for 14 days; type: organism-based; settings: in vivo, 336 h, dose 50-500 mg/kg, time 14 day
[26] = target: T1, Dual specificity mitogen-activated protein kinase kinase 3; assay: Binding affinity to CM5 chip immobilized human MKK3 (20 to 347 residues) expressed in Escherichia coli BL21 (DE3) assessed as dissociation constant, Kd by surface plasmon resonance analysis

For `COc1ccc([C@H]2CC(=O)c3cc(OC)cc(OC)c32)cc1`, the IC50 [1] was 580 nM, the CLH [2] was 121.4 mL/min/g and the CLH [3] was 46 mL/min/g. For the same compound, the Vd [4] was 7.76 L/kg, the AUC(0-t) [5] was 9900 ng·h/mL and the half-life [6] was 8.67 h. For the same compound, the Activity [7] was 51.5%, the Activity [8] was 57.6% and the Activity [9] was 32.9%. The Activity [10] was 56.1%, the Activity [11] was 71.7% and the Activity [12] was 89.9%. For the same compound, the Activity [13] was 13.6%, the Activity [14] was 19.4% and the Activity [15] was 41.2%. The Activity [16] was 61.9%, the Activity [17] was 58.2% and the Activity [18] was 64.4%. It also gave an Activity [19] of 22.8%, an Activity [20] of 36.1% and an Activity [21] of 31%. For the same compound, the Activity [22] was 58.2%, the inhibition [23] was “Dde” and the Kd [24] was 71 nM. For the same compound, the Activity [25] was “Non-Toxic” and the Kd [26] was 3.61 10^-3/s.
